{"source": "patent US20040133938A1", "about": "“Use of lipoic acid in plant culture media” (priority 2002, published 2004)", "key": {"[1]": {"tested_on": "MicroTom cotyledon explants", "test": "Transient GUS expression in MicroTom cotyledon explants", "type": "cell-based, Lycopersicon esculentum", "conditions": "for % High transient expression / % Low transient expression / % No transient expression: GUS, after 5 days on selection media", "experimental": "(§1) Cotyledon explants were isolated from seedlings 7 days after sowing seeds on Davis Germination medium. Cotyledon explants were prepared by bathing them in 6 mL of TXD liquid medium (4.3 g/L MS salts, 2 mL/L Gamborg's B-5 500× salts, 4 mg/L pCPA (p-chlorophenoxyactic acid), 0.005 mg/L kinetin, and 30 g/L sucrose) to prevent desiccation and trimming them at both ends using a #15 feather blade. Immediately after the trimming, the cotyledon explants were gently placed on “feeder plates” containing UC2PC medium (2.2 g/L MS salts, 2.2 mL/L, Gamborg's B-5 500× salts, 0.2 mg/L 2,4-D, 4 mg/L pCPA, 0.1 mg/L kinetin, 30 g/L sucrose, 0.2 g/L potassium phosphate, 10 g/L agar, 8 mL/L acetosyringone (4.91 mg/mL), and 4 mL galacturonic acid (53.05 mg/mL)). The “feeder plates” are made by overlaying 2 mL of tobacco suspension cells and a sterile Whatman filter on the plates containing UC2PC medium. The cotyledon explants were gently poked with a sharp forceps (ASIM5311, Stainless French, made in Switzerland). Usually six to ten pokes were made per explant depending the size of cotyledons. Right after poking, the cotyledons were inoculated with Agrobacterium containing pMON15715 (FIG. 1) by adding 3 mL of the adjusted Agrobacterium solution on top of the cotyledons. The plates were incubated for 10 min at room temperature, and the Agrobacterium solution was aspirated with a sterile pipette. The cotyledons were then co-cultured for 2 days at 23-24° C. under a 16-h photoperiod. The co-culture plates were placed in plastic bags to keep the humidity, which is preferable for MicroTom growth.\nTwo days after co-cultivation, cotyledons were transferred to shoot induction medium SI-2 (4.3 g/L MS salts, 2 mL/L, Gamborg's B-5 500× salts, 30 g/L sucrose, 10 g/L agar, 500 mg/L carbenicillin, 100 mg/L cefotaxime, 0.1 mg/L IAA, and 2 mg/L zeatin riboside) supplemented with 10 μM of lipoic acid and 100 mg/L kanamycin. Three to four weeks after the induction stage, the cotyledons formed buds or shoots. Cotyledons with buds or shoots were separated by individual event and transferred to, shoot elongation medium E2 (SI-2 medium without IAA), supplemented with 100 mg/L kanamycin for two to four weeks. All culture plates were placed in a culture box, placed inside a plastic bag, and cultured at 23-24° C. under a 16 h photoperiod.\nAt the same time the tissue browning severity was measured, transient expression of the gus gene was scored. High transient expression was defined as an explant having more than 30% of the pokes that produced GUS blue spots. Low transient expression was defined as an explant having less than 30% of the pokes that produced GUS blue spots about 5 days after culturing on selection medium. Nontransient expression was determined as an explant having no GUS blue spot. With the lipoic acid treatments at the concentrations of 10 and 50 μM, the percentage of explants having high transient expression doubled from 30% (non-lipoic acid treatment) up to 60.9% (Table 2). […] When lipoic acid was used in the selection process at the concentrations of 10, 50 and 100 μM, 100% of explants transiently expressed the GUS gene, but without lipoic acid or lipoic acid at the concentration of 5 μM, 20% and 9.5% of explants had no GUS transient expression."}, "[2]": {"tested_on": "MicroTom cotyledon explants", "test": "Tissue browning severity on Agrobacterium-inoculated MicroTom cotyledon explants", "type": "cell-based, Lycopersicon esculentum", "conditions": "after 5 days on selection media", "experimental": "This example describes the use of lipoic acid in an Agrobacterium-based tomato transformation process. MicroTom (a cultivar of tomato species: Lycopersicon esculentum) seeds from Tomato Growers (Ball Seed Co., West Chicago, Ill. USA) were surface-sterilized by first soaking for 10 min in sterile deionized water, removing the water, and then adding enough 70% ethanol to immerse the seeds for 1 min while stirring vigorously and then aspirating the ethanol. The seeds were rinsed 2× with sterile deionized water and then soaked in 25% Chlorox with 1-2 drops of Tween 20 for 10 min while stirring frequently. The seeds were rinsed 3× with sterile deionized water. The seeds were germinated in phytatrays containing Davis Germination medium (4.3 g/L MS salts, 2 ml/L Gamborg's B-5 500× salts, 20 g/L sucrose and 10 g/L agar) (approximately 120 seeds/container), and the phytatrays were wrapped with aluminum foil. The phytatray cultures were maintained at 28° C. under the dark for 5 days. After 5 days, the phytatray cultures were unwrapped and grown at 24° C. under a 16 h photoperiod for about 44 h.\nas §1\n[…] Three to four weeks after the induction stage, the cotyledons formed buds or shoots. Cotyledons with buds or shoots were separated by individual event and transferred to, shoot elongation medium E2 (SI-2 medium without IAA), supplemented with 100 mg/L kanamycin for two to four weeks. All culture plates were placed in a culture box, placed inside a plastic bag, and cultured at 23-24° C. under a 16 h photoperiod.\nEvaluation of plants after transformation with pMON15715 (FIG. 1) as described above was carried out in multiple ways. About five days after selection, tissue browning severity within and around the poked region on cotyledon explants was measured under a dissecting microscope. Low tissue browning severity was determined as less than 30% of the pokes made on each cotyledon explant that produced browning tissue and the high tissue browning severity was determined as more than 30% of the pokes made on each explant that generated browning tissue 5 days after culturing on selection medium. All the treatments of lipoic acid at concentrations of 5, 10, 50 and 100 μM had 1.5- to 1.8-fold increases of the percentage of explants scored as low tissue browning severity, respectively, compared to the treatment without lipoic acid (Table 1)."}}}
{"smiles": "O=C(O)CCCCC1CCSS1", "note": "(stereo not shown) [lipoic acid, 1,2-dithiolane-3-pentanoic acid]", "values": [{"measurement": "% High transient expression", "setting": "[1]; 5 μM lipoic acid", "result": 42.9, "unit": "%"}, {"measurement": "% Low transient expression", "setting": "[1]; 5 μM lipoic acid", "result": 47.6, "unit": "%"}, {"measurement": "% No transient expression", "setting": "[1]; 5 μM lipoic acid", "result": 9.5, "unit": "%"}, {"measurement": "% High transient expression", "setting": "[1]; 10 μM lipoic acid", "result": 60.9, "unit": "%"}, {"measurement": "% Low transient expression", "setting": "[1]; 10 μM lipoic acid", "result": 39.1, "unit": "%"}, {"measurement": "% No transient expression", "setting": "[1]; 10 μM lipoic acid", "result": 0, "unit": "%"}, {"measurement": "% High transient expression", "setting": "[1]; 50 μM lipoic acid", "result": 56.5, "unit": "%"}, {"measurement": "% Low transient expression", "setting": "[1]; 50 μM lipoic acid", "result": 43.5, "unit": "%"}, {"measurement": "% No transient expression", "setting": "[1]; 50 μM lipoic acid", "result": 0, "unit": "%"}, {"measurement": "% High transient expression", "setting": "[1]; 100 μM lipoic acid", "result": 34.8, "unit": "%"}, {"measurement": "% Low transient expression", "setting": "[1]; 100 μM lipoic acid", "result": 65.2, "unit": "%"}, {"measurement": "% No transient expression", "setting": "[1]; 100 μM lipoic acid", "result": 0, "unit": "%"}, {"measurement": "% of explants that transiently expressed the GUS gene", "setting": "[1]; lipoic acid at 10, 50 and 100 μM in the selection process", "result": 100, "unit": "%"}, {"measurement": "increase of the percentage of explants having high level of transient expression", "setting": "[1]; summary, MicroTom transformation", "result": 2, "unit": "fold"}, {"measurement": "% high browning", "setting": "[2]; 5 μM lipoic acid", "result": 34.9, "unit": "%"}, {"measurement": "% low browning", "setting": "[2]; 5 μM lipoic acid", "result": 65.1, "unit": "%"}, {"measurement": "% high browning", "setting": "[2]; 10 μM lipoic acid", "result": 33.9, "unit": "%"}, {"measurement": "% low browning", "setting": "[2]; 10 μM lipoic acid", "result": 66.1, "unit": "%"}, {"measurement": "% high browning", "setting": "[2]; 50 μM lipoic acid", "result": 34.4, "unit": "%"}, {"measurement": "% low browning", "setting": "[2]; 50 μM lipoic acid", "result": 65.6, "unit": "%"}, {"measurement": "% high browning", "setting": "[2]; 100 μM lipoic acid", "result": 46, "unit": "%"}, {"measurement": "% low browning", "setting": "[2]; 100 μM lipoic acid", "result": 54, "unit": "%"}]}
